Results as given in patent US20140018347A1, “BENZOXAZEPINES AS INHIBITORS OF mTOR AND METHODS OF THEIR USE AND MANUFACTURE” (Exelixis, Inc., priority 2010, published 2014).

Legend:
[1] = target: mTORC1 (Homo sapiens, UniProt P42345); assay: mTOR/GbL/Raptor (mTORC1) ELISA Assay; type: biochemical; conditions: phosphorylation of 4E-BP1; 0.2 nM mTORC1, 10 μM ATP
Protocol: The measurement of mTORC1 enzyme activity was performed in an ELISA assay format following the phosphorylation of 4E-BP1 protein. All experiments were performed in the 384-well format. Generally, 0.5 μL DMSO containing varying concentrations of the test compound was mixed with 15 μL enzyme solution. Kinase reactions were initiated with the addition of 15 μL of substrates-containing solution. The assay conditions were as follows; 0.2 nM mTORC1, 10 μM ATP and 50 nM NHis-tagged 4E-BP1 in 20 mM Hepes, pH 7.2, 1 mM DTT, 50 mM NaCl, 10 mM MnCl2, 0.02 mg/mL BSA, 0.01% CHAPS, 50 mM β-glycerophosphate. Following an incubation of 120 minutes at ambient temperature, 20 μL of the reaction volume was transferred to a Ni-Chelate-coated 384-well plate. The binding step of the 4E-BP1 protein proceeded for 60 minutes, followed by washing 4 times each with 50 μL of Tris-buffered saline solution (TBS). Anti-phospho-4E-BP1 rabbit-IgG (20 μL, 1:5000) in 5% BSA-TBST (0.2% Tween-20 in TBS) was added and further incubated for 60 minutes. Incubation with a secondary HRP-tagged anti-IgG was similarly performed after washing off the primary antibody (4 washes of 50 μL). Following the final wash step with TBST, 20 μL of SuperSignal ELISA Femto (Pierce Biotechnology) was added and the luminescence measured using an EnVision plate reader.

[2] = target: PI3Kalpha (Homo sapiens, UniProt P42336); assay: PI3K Biochemical Assays (PI3K-alpha assay); conditions: ATP consumption, luciferase-luciferin; 1 μM ATP, 10 μM PIP2
Protocol: PI3Kn activity was measured as the percent of ATP consumed following the kinase reaction using luciferase-luciferin-coupled chemiluminescence. Reactions were conducted in 384-well white, medium binding microtiter plates (Greiner). Kinase reactions were initiated by combining test compounds, ATP, substrate (PIP2), and kinase in a 20 μL volume in a buffer solution. The standard PI3Kalpha assay buffer was composed 50 mM Tris, pH 7.5, 1 mM EGTA, 10 mM MgCl2, 1 mM DTT and 0.03% CHAPS. The standard assay concentrations for enzyme, ATP, and substrate were 3 nM, 1 μM, and 10 μM, respectively. The reaction mixture was incubated at ambient temperature for approximately 2 h. Following the kinase reaction, a 10 μL aliquot of luciferase-luciferin mix (Promega Kinase-Glo) was added and the chemiluminescence signal measured using a Victor2 or EnVision (Perkin Elmer). Total ATP consumption was limited to 40-60% and IC50 values of control compounds correlate well with literature references. Substituting PI3Kα with PI3Krβ, PI3Kγ, or PI3Kδ, the inhibitory activity of the compounds for the other isoforms of PI3K were measured. For the PI3Kβ and PI3Kδ assays, enzyme concentrations were 10 nM and 4 nM, respectively. For the PI3Kγ assay, enzyme concentration was 40 nM, the incubation time was 1 h, and the concentration of MgCl2 in the assay buffer was 5 mM.

Sequence of PI3Kalpha (P42336 whole entry): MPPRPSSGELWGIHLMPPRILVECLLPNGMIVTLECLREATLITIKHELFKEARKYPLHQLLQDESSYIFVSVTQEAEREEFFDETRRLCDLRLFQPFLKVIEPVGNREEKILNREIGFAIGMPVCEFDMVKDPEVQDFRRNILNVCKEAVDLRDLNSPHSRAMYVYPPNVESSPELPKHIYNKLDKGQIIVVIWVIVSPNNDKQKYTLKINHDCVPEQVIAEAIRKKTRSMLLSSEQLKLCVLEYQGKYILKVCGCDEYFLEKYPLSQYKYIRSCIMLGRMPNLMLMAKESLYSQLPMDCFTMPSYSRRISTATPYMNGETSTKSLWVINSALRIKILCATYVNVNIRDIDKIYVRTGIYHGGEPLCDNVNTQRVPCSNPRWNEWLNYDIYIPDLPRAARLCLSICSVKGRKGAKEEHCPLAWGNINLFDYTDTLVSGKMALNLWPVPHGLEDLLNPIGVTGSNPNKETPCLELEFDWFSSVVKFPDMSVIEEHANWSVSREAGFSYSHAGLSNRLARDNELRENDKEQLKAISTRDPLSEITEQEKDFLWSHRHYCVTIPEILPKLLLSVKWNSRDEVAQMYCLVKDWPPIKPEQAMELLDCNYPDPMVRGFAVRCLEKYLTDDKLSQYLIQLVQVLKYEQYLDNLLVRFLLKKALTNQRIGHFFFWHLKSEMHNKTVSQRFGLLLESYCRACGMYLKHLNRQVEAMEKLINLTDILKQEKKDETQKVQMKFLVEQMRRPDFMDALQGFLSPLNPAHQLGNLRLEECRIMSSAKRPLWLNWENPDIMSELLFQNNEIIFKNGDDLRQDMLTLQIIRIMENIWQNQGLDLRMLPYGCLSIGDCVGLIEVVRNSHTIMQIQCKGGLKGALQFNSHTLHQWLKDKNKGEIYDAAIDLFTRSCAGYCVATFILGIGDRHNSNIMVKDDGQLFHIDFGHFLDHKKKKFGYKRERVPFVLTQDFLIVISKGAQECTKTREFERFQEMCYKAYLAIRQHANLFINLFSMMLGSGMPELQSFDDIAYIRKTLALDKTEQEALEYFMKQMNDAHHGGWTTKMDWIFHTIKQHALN
Sequence of PI3Kalpha (P27986 whole entry partner): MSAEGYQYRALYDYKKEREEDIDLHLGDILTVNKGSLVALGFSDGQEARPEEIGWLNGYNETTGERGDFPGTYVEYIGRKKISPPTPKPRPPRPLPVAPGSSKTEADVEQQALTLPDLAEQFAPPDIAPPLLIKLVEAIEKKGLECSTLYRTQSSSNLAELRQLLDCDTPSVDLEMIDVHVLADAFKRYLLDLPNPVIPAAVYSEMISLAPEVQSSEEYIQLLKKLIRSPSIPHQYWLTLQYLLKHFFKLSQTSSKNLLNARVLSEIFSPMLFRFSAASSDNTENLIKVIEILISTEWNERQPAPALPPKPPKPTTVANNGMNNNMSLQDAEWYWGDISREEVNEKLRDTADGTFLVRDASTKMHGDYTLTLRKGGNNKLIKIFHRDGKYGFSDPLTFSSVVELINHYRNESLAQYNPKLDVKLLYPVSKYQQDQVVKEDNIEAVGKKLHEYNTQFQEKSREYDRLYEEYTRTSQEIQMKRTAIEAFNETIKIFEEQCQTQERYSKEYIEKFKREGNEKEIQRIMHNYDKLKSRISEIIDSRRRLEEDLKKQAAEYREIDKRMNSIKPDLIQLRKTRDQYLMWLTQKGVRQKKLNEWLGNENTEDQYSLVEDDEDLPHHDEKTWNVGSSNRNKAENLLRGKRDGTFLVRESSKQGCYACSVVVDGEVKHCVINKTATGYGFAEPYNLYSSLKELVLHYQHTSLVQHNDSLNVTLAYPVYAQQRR

SMILES | IC50 [1] [nM] | IC50 [2] [nM]
Cc1nc(C(N)=O)nc(N2CCOc3ccc(-c4cnc5sc(N)nc5c4)cc3C2)c1C(C)C [Compound 20, 4-[7-(2-amino[1,3]thiazolo[5,4-b]pyridin-6-yl)-2,3-dihydro-1,4-benzoxazepin-4(5H)-yl]-6-methyl-5-(1-methylethyl)pyrimidine-2-carboxamide] | ≤ 100 | ≤ 100
CC[C@H]1CCc2c(nc(N)nc2N2CCOc3ccc(-c4cnc5sc(N)nc5c4)cc3C2)C1 [Compound 56, (7S)-4-[7-(2-amino[1,3]thiazolo[5,4-b]pyridin-6-yl)-2,3-dihydro-1,4-benzoxazepin-4(5H)-yl]-7-ethyl-5,6,7,8-tetrahydroquinazolin-2-amine] | ≤ 100 | ≤ 100
Cc1nc(CN(C)C)nc(N2CCOc3ccc(-c4cnc5sc(N)nc5c4)cc3C2)c1CC(O)CO (stereo not shown) [Compound 45, 3-{4-[7-(2-amino[1,3]thiazolo[5,4-b]pyridin-6-yl)-2,3-dihydro-1,4-benzoxazepin-4(5H)-yl]-2-[(dimethylamino)methyl]-6-methylpyrimidin-5-yl}propane-1,2-diol] | 500 to 2500 | 500 to 2500
Cc1nc(CN2CCCC2)nc(N2CCOc3ccc(-c4cnc5sc(N)nc5c4)cc3C2)c1C(C)C [Compound 28, 6-{4-[6-methyl-5-(1-methylethyl)-2-(pyrrolidin-1-ylmethyl)pyrimidin-4-yl]-2,3,4,5-tetrahydro-1,4-benzoxazepin-7-yl}[1,3]thiazolo[5,4-b]pyridin-2-amine] | ≤ 100 | ≤ 100
CCc1c(C)nc(CN(C)C)nc1N1CCOc2ccc(-c3cnc4sc(N)nc4c3)cc2C1 [Compound 1, 6-(4-{2-[(dimethylamino)methyl]-5-ethyl-6-methylpyrimidin-4-yl)-2,3,4,5-tetrahydro-1,4-benzoxazepin-7-yl)[1,3]thiazolo[5,4-b]pyridin-2-amine] | 100 to 500 | ≤ 100
CCOC(=O)c1cnc(N)nc1N1CCOc2ccc(-c3cnc4sc(N)nc4c3)cc2C1 [Compound 48, ethyl 2-amino-4-[7-(2-amino[1,3]thiazolo[5,4-b]pyridin-6-yl)-2,3-dihydro-1,4-benzoxazepin-4(5H)-yl]pyrimidine-5-carboxylate] | 100 to 500 | 100 to 500
COC(C)c1c(Cl)nc(N)nc1N1CCOc2ccc(-c3cnc4sc(N)nc4c3)cc2C1 (stereo not shown) [Compound 96, 6-(4-{2-amino-6-chloro-5-[1-(methyloxy)ethyl]pyrimidin-4-yl)-2,3,4,5-tetrahydro-1,4-benzoxazepin-7-yl)[1,3]thiazolo[5,4-b]pyridin-2-amine] | ≤ 100 | ≤ 100
CC(O)c1c(Cl)nc(N)nc1N1CCOc2ccc(-c3cnc4sc(N)nc4c3)cc2C1 (stereo not shown) [Compound 53, 1-{2-amino-4-[7-(2-amino[1,3]thiazolo[5,4-b]pyridin-6-yl)-2,3-dihydro-1,4-benzoxazepin-4(5H)-yl]-6-chloropyrimidin-5-yl}ethanol] | ≤ 100 | ≤ 100
Cc1nc(N)nc(N2CCOc3ccc(-c4cnc5sc(N)nc5c4)cc3C2)c1C1CC1 [Compound 41, 6-[4-(2-amino-5-cyclopropyl-6-methylpyrimidin-4-yl)-2,3,4,5-tetrahydro-1,4-benzoxazepin-7-yl][1,3]thiazolo[5,4-b]pyridin-2-amine] | 500 to 2500 | 100 to 500
CCc1c(Cl)nc(N)nc1N1CCOc2ccc(-c3cnc4sc(N)nc4c3)cc2C1 [Compound 7, 6-[4-(2-amino-6-chloro-5-ethylpyrimidin-4-yl)-2,3,4,5-tetrahydro-1,4-benzoxazepin-7-yl][1,3]thiazolo[5,4-b]pyridin-2-amine] | ≤ 100 | ≤ 100
N#Cc1cnc(N)nc1N1CCOc2ccc(-c3cnc4sc(N)nc4c3)cc2C1 [Compound 79, 2-amino-4-[7-(2-amino[1,3]thiazolo[5,4-b]pyridin-6-yl)-2,3-dihydro-1,4-benzoxazepin-4(5H)-yl]pyrimidine-5-carbonitrile] | 100 to 500 | ≤ 100
Cc1nc(N)nc(N2CCOc3ccc(-c4cnc5sc(N)nc5c4)cc3C2)c1-c1ccccc1 [Compound 39, 6-[4-(2-amino-6-methyl-5-phenylpyrimidin-4-yl)-2,3,4,5-tetrahydro-1,4-benzoxazepin-7-yl][1,3]thiazolo[5,4-b]pyridin-2-amine] | ≤ 100 | ≤ 100
Cc1nc(C#N)nc(N2CCOc3ccc(-c4cnc5sc(N)nc5c4)cc3C2)c1C(C)C [Compound 25, 4-[7-(2-amino[1,3]thiazolo[5,4-b]pyridin-6-yl)-2,3-dihydro-1,4-benzoxazepin-4(5H)-yl)-6-methyl-5-(1-methylethyl)pyrimidine-2-carbonitrile] | ≤ 100 | 100 to 500
CC1(C)CC(=O)c2sc(N3CCOc4ccc(-c5cnc6sc(N)nc6c5)cc4C3)nc2C1 [Compound 84, 2-[7-(2-amino[1,3]thiazolo[5,4-b]pyridin-6-yl)-2,3-dihydro-1,4-benzoxazepin-4(5H)-yl]-5,5-dimethyl-5,6-dihydro-1,3-benzothiazol-7(4H)-one] | 100 to 500 | 500 to 2500
C=C(C)c1c(C)nc(N)nc1N1CCOc2ccc(-c3cnc4sc(N)nc4c3)cc2C1 [Compound 30, 6-{4-[2-amino-6-methyl-5-(1-methylethenyl)pyrimidin-4-yl]-2,3,4,5-tetrahydro-1,4-benzoxazepin-7-yl}[1,3]thiazolo[5,4-b]pyridin-2-amine] | ≤ 100 | ≤ 100
Nc1cc(N2CCOc3ccc(-c4cnc5sc(N)nc5c4)cc3C2)nc(Cl)n1 [Compound 51, 6-[4-(6-amino-2-chloropyrimidin-4-yl)-2,3,4,5-tetrahydro-1,4-benzoxazepin-7-yl][1,3]thiazolo[5,4-b]pyridin-2-amine] | 100 to 500 | 500 to 2500
C=CCc1c(C)nc(N)nc1N1CCOc2ccc(-c3cnc4sc(N)nc4c3)cc2C1 [Compound 83, 6-[4-(2-amino-6-methyl-5-prop-2-en-1-ylpyrimidin-4-yl)-2,3,4,5-tetrahydro-1,4-benzoxazepin-7-yl][1,3]thiazoloJ-[5,4-b]pyridin-2-amine] | ≤ 100 | ≤ 100
C/C=C/c1c(Cl)nc(N)nc1N1CCOc2ccc(-c3cnc4sc(N)nc4c3)cc2C1 [Compound 75, 6-(4-{2-amino-6-chloro-5-[(1E)-prop-1-en-1-yl]pyrimidin-4-yl}-2,3,4,5-tetrahydro-1,4-benzoxazepin-7-yl)[1,3]thiazolo[5,4-b]pyridin-2-amine] | ≤ 100 | ≤ 100
Cc1nc(S(C)(=O)=O)nc(N2CCOc3ccc(-c4cnc5sc(N)nc5c4)cc3C2)c1C(C)C [Compound 24, 6-{4-[6-methyl-5-(1-methylethyl)-2-(methylsulfonyl)pyrimidin-4-yl]-2,3,4,5-tetrahydro-1,4-benzoxazepin-7-yl}[1,3]thiazolo[5,4-b]pyridin-2-amine] | ≤ 100 | ≤ 100
Nc1nc(Cl)cc(N2CCOc3ccc(-c4cnc5sc(N)nc5c4)cc3C2)n1 [Compound 16, 6-[4-(2-amino-6-chloropyrimidin-4-yl)-2,3,4,5-tetrahydro-1,4-benzoxazepin-7-yl][1,3]thiazolo[5,4-b]pyridin-2-amine] | 100 to 500 | 100 to 500
Cc1nc(N)nc(N2CCOc3ccc(-c4cnc5sc(N)nc5c4)cc3C2)c1CCC#N [Compound 44, 3-{2-amino-4-[7-(2-amino[1,3]thiazolo[5,4-b]pyridin-6-yl)-2,3-dihydro-1,4-benzoxazepin-4(5H)-yl]-6-methylpyrimidin-5-yl}propanenitrile] | 100 to 500 | ≤ 100
CCCc1c(Cl)nc(N)nc1N1CCOc2ccc(-c3cnc4sc(N)nc4c3)cc2C1 [Compound 9, 6-[4-(2-amino-6-chloro-5-propylpyrimidin-4-yl)-2,3,4,5-tetrahydro-1,4-benzoxazepin-7-yl][1,3]thiazolo[5,4-b]pyridin-2-amine] | ≤ 100 | ≤ 100
CC1(C)CCc2nc(CC#N)nc(N3CCOc4ccc(-c5cnc6sc(N)nc6c5)cc4C3)c2C1 [Compound 60, {4-[7-(2-amino[1,3]thiazolo[5,4-b]pyridin-6-yl)-2,3-dihydro-1,4-benzoxazepin-4(5H)-yl]-6,6-dimethyl-5,6,7,8-tetrahydroquinazolin-2-yl}acetonitrile] | ≤ 100 | ≤ 100
